Tests used:
[1] = tested on: elongin C; assay: Immunoprecipitation with anti-elongin C, immunoblot anti-FITC; assay type: binding, rat; conditions: FITC-conjugated peptides, Figure 3C, difference p < 0.001
Experimental: (§1) For neuronal differentiation, cells were dissociated into a single-cell suspension by use of a Pasteur pipette and re-suspended into a concentration of 50,000 cells/mL in DMEM/F12 without serum, neurotrophic factors or growth factors. Then, the cells were cultured on poly-L-lysine-coated dishes or cover glasses, and the synthesized peptides at concentrations from 1 to 5 μM were added to the culture medium and delivered into the cells. Three days or more later, the cells were used for morphological, immunocytochemical, immunohistochemical, electrophysiological and immunoprecipitation studies, as well as for Western blot analysis.
Cultured cells (1 × 10^6) were washed with ice-cold PBS and lysed in RIPA lysis buffer (Upstate, Charlottesville, VA, USA). The total protein was extracted from the cells, and the total protein concentration of each lysate was adjusted to 1 mg/mL. The lysates were immunoprecipitated with anti- elongin C antibody (Santa Cruz, San Diego, CA, USA) diluted at 1:500 by using μMACS Protein A Microbeads (Miltenyi Biotec, Bergisch Gladbach, Germany). The immunoprecipitates were analyzed by SDS/gradient polyacrylamide gel and Western blotting with anti-FITC antibody (Santa Cruz, San Diego, CA, USA) diluted 1:500. Immunolabeled bands were detected by using enhanced chemiluminescence reagents (Amersham Biosciences Corp., Piscataway, NJ, USA). Images were analyzed with LAS-1000 (Fujifilm), and the density of the bands was determined by using Image Gauge software (Fujifilm).

[2] = tested on: JAK2; assay: Western blotting of JAK2 before and after peptide treatment; assay type: cell-based, rat; conditions: Western blot, Figure 5B, p < 0.01
[3] = tested on: STAT3; assay: Western blotting of STAT3 before and after peptide treatment; assay type: cell-based, rat; conditions: Western blot, Figure 5B, p < 0.01
[4] = tested on: skin-derived precursors (SKPs); assay: Immunocytochemistry with anti-Neurofilament-H (NFH) antibody; assay type: cell-based, rat (neonate Wistar); conditions: immunocytochemistry, peptides at 1 to 5 μM; mean ± SEM; vs VHL(157–171): p < 0.01 for VHL(157–168), p < 0.005 for TAT
Experimental: (§2) Rodent skin-derived precursor cells (SKPs), which can differentiate to neurons, were used. SKPs were previously isolated from the back dermis of neonate Wistar rats by the authors. These cells were cultured in growth medium composed of DMEM/F12 (1:1; Gibco, Grand Island, NY, USA) containing 2% B27 supplement (Gibco), 20 ng/mL epidermal growth factor (EGF; Upstate Biotechnology, Lake Placid, NY, USA), and 40 ng/mL bFGF (PeproTech EC Ltd., Rocky Hill, NJ, USA) in a humidified incubator at 37 °C with 5% CO2. The floating clusters of cultured cells were centrifuged and dissociated into a single-cell suspension by use of a Pasteur pipette with a flame-polished tip. These single cells were then re-suspended into at a concentration of 50,000 cells/mL for passage or experiments.
as §1
Cultured cells were fixed with 4% paraformaldehyde in PBS (Phosphate buffered saline) for 10 min at room temperature. Cells were incubated for 1 h at room temperature with primary antibodies. Antibodies against anti-MAP2 antibody (Sigma-Aldrich, St. Louis, MO, USA), anti-Neurofilment-H (NFH) antibody (Sigma-Aldrich), anti-NeuN antibody (Merk Millipore, Billerica, MA, USA), anti-GFAP antibody (DAKO, Santa Clara, CA, USA), anti-tyrosine hydroxylase (TH) antibody (Merk Millipore, Billerica, MA, USA), anti-choline acetyl transferase (ChAT) antibody (Abbiotec, San Diego, CA, USA), anti-glutamic acid decaboxylase (GAD) antibody (Enzo Life Sciences, Flamingdale, NY, USA), and anti-rhodopsin antibody (Santa Cruz, San Diego, CA, USA) were used. […] Nuclear counterstaining was done with DAPI (Molecular Probes, Eugene, OR, USA) or TO-PRO-3 (Molecular Probes), and observations were made with a fluorescence microscope system (FV300, Olympus, Tokyo, Japan). We counted the number of immuno-positive cells with a given antibody in 4 to 6 random non-overlapping visual fields (50–200 cells per field) in each experiment. […] The degree of positivity was expressed as the rate of immuno-positive cells to the total number of nuclei stained with DAP1 or TO-PRO-3.

[5] = tested on: skin-derived precursors (SKPs); assay: Neurite outgrowth / morphological evaluation of neuronal differentiation; assay type: cell-based, rat (neonate Wistar); conditions: peptides at 1 to 5 μM; for Neurite Outgrowth Activity: Figure 2A, rates of cells having neurites, VHL157–168 vs VHL(157–171) p < 0.005
Experimental: as §2, §1
Neurite outgrowth with length exceeding the diameter of the neuronal soma is often assessed as a morphological index of neuronal differentiation. After a single-cell suspension was made by pipetting, the cells were cultured in DMEN/F12 medium alone at 37 °C in a 5% CO2 incubator. Thereafter, neurite outgrowth was evaluated with the following 4 levels: +++, for above 50% of the cells showing neurite outgrowth; ++, for 20–50% with neurite outgrowth; +, for 5–19% having neurite outgrowth; and −, for below 5% of the cells with neurite outgrowth.

[6] = tested on: skin-derived precursors (SKPs); assay: Whole-cell patch-clamp electrophysiology; assay type: cell-based, rat (neonate Wistar); conditions: five days after peptide addition at 3 μM, holding potential −80 mV, steps of 20 mV from −100 to 100 mV, VHL(157–168) vs VHL(157–171) p < 0.01
Experimental: as §2, §1
To record fast sodium and delayed rectifier potassium currents, we prepared extracellular and intracellular solutions as described previously. […] For recordings and data analysis we used CEZ-2300 (Nihon Kohden, Tokyo, Japan) and pCLAMP 6.0 software (Axon Instruments, Burlingame, CA, USA). Linear components of leak and capacitive currents were reduced by analogue circuitry and then canceled by the P/N method. Signals were sampled every 20 μs, and currents were filtered at 5 kHz. Data were additionally processed with Origin 5.0 (Microcal, Northhampton, MA, USA).

[7] = tested on: rat brain; assay: Immunohistochemistry (NeuN) of transplanted peptide-treated cells in rat brain; assay type: in vivo, rat (Wistar); conditions: 1 × 10^5 peptide-treated cells transplanted into rat brain, 6 weeks; mean ± SEM; vs VHL(157–171): p < 0.01 for VHL(157–168), p < 0.005 for TAT
Experimental: To evaluate neuronal differentiation of transplanted cells in rat brains, immunohistochemical study was performed as described previously. Before grafting, cells were preincubated with red fluorescence PKH26PCL (Sigma, St. Louis, MO, USA). […] Rats were anesthetized with isoflurane before surgery, and 1 × 10^5 cells were transplanted into rat brain. The rats were perfused with periodate-lysine-paraformaldehyde solution 6 weeks after the transplantation. Their brains were subsequently dissected and postfixed in the same medium for 2 h, cryopreserved in 30% sucrose for 12 h, and then embedded in Tissue Tek OCT compound (Sakura, Tokyo, Japan). Cryostat coronal sections of 14-μm thickness were prepared for immunohistochemistry. For immunostaining, sections were incubated with primary antibody, anti-NeuN antibody, and then incubated in secondary antibody, FITC-conjugated anti-rabbit IgG. Counterstaining was done with DAPI. In immohistochemistry, observations were made with a confocal immunofluorescence microscope (FV300, Olympus, Tokyo, Japan).
Wistar rats (Clea, Tokyo, Japan) were used in all experiments and housed in a temperature controlled room on a 12-h day/night cycle with free access to food and water. All animal experimental procedures were approved by the Institutional Animal Use Committee of Yokohama City University (ID 153, 1 April 2015) and were in accordance with National Institutes of Health guidelines for care and use of laboratory animals.

[8] = tested on: skin-derived precursors (SKPs); assay: Western blot analysis of NFH protein; assay type: cell-based, rat (neonate Wistar); conditions: three days after treatment, Figure 3B, peptides at 1 to 5 μM, less than VHL(157–171): VHL(157–168) p < 0.01, TAT p < 0.001
Experimental: as §2, §1
Cultured cells were washed 3 times in cold PBS and then scraped into ice-cold PBS. After incubation on ice for 10 min, the cells were lysed with lysis buffer and centrifuged, after which the supernatants were collected. Each sample was separated by SDS-PAGE under reducing conditions and transferred electrophoretically to nitrocellulose filters. Non-specific binding of antibody was blocked by incubation with 5% donkey serum for 1 h. Western blots were probed with anti-MAP2 antibody, anti-NFH antibody, anti-ChAT antibody, anti-GAD antibody, anti-rhodopsin antibody, anti-TH antibody, and anti-elongin C antibody (Santa Cruz, San Diego, CA, USA) followed by horseradish peroxidase-conjugated secondary antibodies. Protein bands were detected by using a chemical luminescence detection system (ECL Plus Western Blotting Reagent Pack, Amersham, Hemel Hempstead, UK). Images were analyzed with LAS-1000 (Fujifilm, Tokyo, Japan), and the density of the bands was determined by using Image Gauge software (Fujifilm).

[9] = target: T1, elongin BC (Homo sapiens, UniProt Q15369+Q15370); assay: Isothermal titration calorimetry (ITC); assay type: binding
T1 construct: made in house; host or cells: E. coli BL21 (DE3), pCDFDuet-1
T1 sequence (Q15369 17-112): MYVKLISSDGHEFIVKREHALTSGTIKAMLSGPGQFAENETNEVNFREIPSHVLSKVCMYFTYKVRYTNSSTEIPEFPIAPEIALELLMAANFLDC
T1 sequence (Q15370 whole entry partner): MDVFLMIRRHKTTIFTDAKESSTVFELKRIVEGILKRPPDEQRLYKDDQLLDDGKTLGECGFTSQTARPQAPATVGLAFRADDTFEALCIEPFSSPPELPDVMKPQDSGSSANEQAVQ
Experimental: In order to determine the crucial peptide sequence for elongin BC binding by isothemal titration caloritetry (ITC), recombinant proteins of elongin B and elongin C were prepared as follows. […] For purification, cell pellets were lysed by sonication in buffer A (20 mM Tris-HCl, pH 8.0, 0.5 M NaCl, 10 mM imidazole), and the soluble fraction was loaded onto Ni-NTA resin (Qiagen, Venlo, Netherlands) and eluted with buffer B (20 mM Tris-HCl (pH 8.0), 0.5 M NaCl, 250 mM imidazole). Eluted proteins were then loaded onto a Mono Q column followed by a Superdex 75 10/300 GL column (GE Healthcare, Chicago, IL, USA). For the ITC experiments, the elongin BC solution was exchanged with buffer C (20 mM HEPES-NaOH (pH 8.0), 150 mM NaCl) by using size-exclusion chromatography. Assays to assess the binding of peptides to elongin BC were performed by using a MicroCal iTC200 isothermal titration calorimeter (GE Healthcare, Chicago, IL, USA). […] The concentration of elongin BC was adjusted to a final one of 35 μM and injected into the sample cell (204 μL). One mM peptide was titrated into the protein solution as 40 consecutive 1.0-μL aliquots at 120-s intervals at 25 °C. The first injection volume was 0.4 μL, and the observed thermal peak was excluded from the data analyses. Duplicate experiments were performed independently. […] The KD values were calculated from duplicate thermograms.

Sequence | Binding to elongin C (FITC band after anti-elongin C immunoprecipitation) [1] | Percentage of NFH-positive cells [4] [%] | Neurite Outgrowth Activity [5] | Voltage-gated outward K+ and inward Na+ currents [6] | Positive rates of NeuN [7] [%] | NFH protein amount / band [8] | also measured
YARAAARQARATLKERCLQVVRSLVK [FITC-VHL(157–171), FITC-tagged VHL(157–171) peptide] | A distinct band for FITC | – | – | – | – | – | Binding to elongin C (FITC band after anti-elongin C immunoprecipitation) ([1]; listed as FITC-conjugated VHL(157–171)): distinctly bound to elongin C
YARAAARQARA [TAT, modified TAT protein transduction domain peptide, reference compound] | – | 6.9 ± 1.5 | scarcely did | no current was elicited | 3.2 ± 0.8 | a faint band | JAK2 degradation [2]: Bands for JAK2 and STAT3 were found for pre-treated cells or TAT-treated cells more than post-treated cells; STAT3 degradation [3]: Bands for JAK2 and STAT3 were found for pre-treated cells or TAT-treated cells more than post-treated cells; Morphological change ([5]; phase-contrast microscopy, Figure 1E): no morphological change
TLKERCLQVVRS [VHL157–168, VHL peptide without TAT, for ITC, synthesized by CS Bio Co] | – | – | – | – | – | – | ΔS ([9]; 25 °C, 20 mM HEPES-NaOH (pH 8.0), 150 mM NaCl, mean ± S.D. of two independent replicates): −8.54 ± 0.74 cal/mol/deg
YARAAARQARATLKERCLQVVRS [FITC-VHL(157–168), FITC-tagged VHL(157–168) peptide] | a faint band for FITC | – | – | – | – | – | Binding to elongin C (FITC band after anti-elongin C immunoprecipitation) ([1]; listed as FITC-conjugated VHL(157–168)): significantly less did
YARAAARQARAKERCLQVVRS [VHL(159–171), pVHL fragment conjugated with PTD] | – | – | scarcely did | – | – | – | Elongin BC binding affinity ([9]; two residues deleted from the N-terminus, p < 0.0001): complete loss of elongin BC binding affinity
YARAAARQARATLKERCLQVVRS [VHL(157–168), BC-box motif plus two amino acids, conjugated with PTD] | – | 10.1 ± 2.2 | significantly weaker neurite outgrowth activity than VHL(157–171) | both significantly smaller outward potassium and inward Na^+ currents | 9.2 ± 1.8 | a less distinct band for NFH | –

From publication PMC5855688, “BC-Box Motif-Mediated Neuronal Differentiation of Somatic Stem Cells” (International Journal of Molecular Sciences, 2018)
